Activity calls are given as the source filed them. The rule behind the calls is not given here.
How the values were obtained:
Wee1-like protein kinase = Wee1-like protein kinase (Homo sapiens, UniProt P30291); assay: Inhibition of Wee1 by TR-FRET analysis
Aurora kinase A = biological target: T1, Aurora kinase A (Homo sapiens, UniProt O14965); assay: Inhibition of Aurora A by TR-FRET analysis
T1 sequence (O14965 whole entry): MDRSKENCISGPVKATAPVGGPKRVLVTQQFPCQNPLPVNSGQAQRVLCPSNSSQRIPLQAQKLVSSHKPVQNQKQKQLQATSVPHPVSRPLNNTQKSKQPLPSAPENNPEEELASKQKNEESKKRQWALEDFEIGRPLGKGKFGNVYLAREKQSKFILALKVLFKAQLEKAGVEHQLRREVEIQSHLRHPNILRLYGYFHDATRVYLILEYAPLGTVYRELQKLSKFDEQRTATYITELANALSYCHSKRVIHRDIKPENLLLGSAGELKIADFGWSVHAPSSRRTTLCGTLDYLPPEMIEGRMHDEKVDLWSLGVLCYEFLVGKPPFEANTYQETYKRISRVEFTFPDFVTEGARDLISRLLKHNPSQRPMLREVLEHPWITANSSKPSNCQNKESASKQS

DOHH-2 = conditions: Homo sapiens
Description: Antitumor activity against human DOHH2 cells xenografted in mouse tumor model assessed as tumor growth inhibition at 10 mg/kg, ip administered Q7d for 3 weeks

[1] = biological target: T2, Protein kinase C epsilon type (Homo sapiens, UniProt Q02156); assay: Inhibition of PKCepsilon by TR-FRET analysis
T2 sequence (Q02156 whole entry): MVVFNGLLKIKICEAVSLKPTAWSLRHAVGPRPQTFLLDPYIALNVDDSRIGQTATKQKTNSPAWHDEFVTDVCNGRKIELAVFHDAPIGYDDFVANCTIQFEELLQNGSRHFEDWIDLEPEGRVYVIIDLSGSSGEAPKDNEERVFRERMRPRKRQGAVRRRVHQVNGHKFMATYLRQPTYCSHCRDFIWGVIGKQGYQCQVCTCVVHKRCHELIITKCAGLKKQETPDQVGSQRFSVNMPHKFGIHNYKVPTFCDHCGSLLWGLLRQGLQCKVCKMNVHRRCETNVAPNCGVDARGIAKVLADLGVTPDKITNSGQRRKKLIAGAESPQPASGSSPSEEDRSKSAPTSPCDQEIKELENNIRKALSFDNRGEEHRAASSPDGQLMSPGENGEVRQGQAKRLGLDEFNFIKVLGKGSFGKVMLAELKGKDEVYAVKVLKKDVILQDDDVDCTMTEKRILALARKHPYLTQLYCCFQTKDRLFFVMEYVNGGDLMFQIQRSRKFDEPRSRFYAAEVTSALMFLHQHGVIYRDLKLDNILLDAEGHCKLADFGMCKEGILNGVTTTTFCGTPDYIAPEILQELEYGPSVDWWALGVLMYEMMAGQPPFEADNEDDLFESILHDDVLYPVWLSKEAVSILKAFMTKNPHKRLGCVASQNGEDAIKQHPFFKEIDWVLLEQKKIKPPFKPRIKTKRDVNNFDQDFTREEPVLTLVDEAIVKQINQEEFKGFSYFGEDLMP

[2] = biological target: Glycogen synthase kinase-3 beta (Homo sapiens, UniProt P49841); assay: Inhibition of GSK3beta by TR-FRET analysis
Chain of Glycogen synthase kinase-3 beta (P49841 whole entry): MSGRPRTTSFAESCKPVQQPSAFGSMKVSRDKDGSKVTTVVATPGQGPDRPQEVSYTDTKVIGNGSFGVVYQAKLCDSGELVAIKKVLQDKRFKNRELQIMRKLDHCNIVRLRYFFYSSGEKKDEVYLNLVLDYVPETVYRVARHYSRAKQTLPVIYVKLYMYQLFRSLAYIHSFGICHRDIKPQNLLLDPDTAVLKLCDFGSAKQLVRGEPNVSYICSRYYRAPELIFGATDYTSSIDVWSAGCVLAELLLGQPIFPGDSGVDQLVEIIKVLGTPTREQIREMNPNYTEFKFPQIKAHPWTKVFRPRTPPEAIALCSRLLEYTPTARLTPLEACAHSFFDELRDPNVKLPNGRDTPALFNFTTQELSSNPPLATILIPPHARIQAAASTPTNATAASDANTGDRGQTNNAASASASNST

[3] = biological target: T3, Receptor-type tyrosine-protein kinase FLT3 (Homo sapiens, UniProt P36888); assay: Inhibition of Flt3 by TR-FRET analysis
T3 sequence (P36888 whole entry): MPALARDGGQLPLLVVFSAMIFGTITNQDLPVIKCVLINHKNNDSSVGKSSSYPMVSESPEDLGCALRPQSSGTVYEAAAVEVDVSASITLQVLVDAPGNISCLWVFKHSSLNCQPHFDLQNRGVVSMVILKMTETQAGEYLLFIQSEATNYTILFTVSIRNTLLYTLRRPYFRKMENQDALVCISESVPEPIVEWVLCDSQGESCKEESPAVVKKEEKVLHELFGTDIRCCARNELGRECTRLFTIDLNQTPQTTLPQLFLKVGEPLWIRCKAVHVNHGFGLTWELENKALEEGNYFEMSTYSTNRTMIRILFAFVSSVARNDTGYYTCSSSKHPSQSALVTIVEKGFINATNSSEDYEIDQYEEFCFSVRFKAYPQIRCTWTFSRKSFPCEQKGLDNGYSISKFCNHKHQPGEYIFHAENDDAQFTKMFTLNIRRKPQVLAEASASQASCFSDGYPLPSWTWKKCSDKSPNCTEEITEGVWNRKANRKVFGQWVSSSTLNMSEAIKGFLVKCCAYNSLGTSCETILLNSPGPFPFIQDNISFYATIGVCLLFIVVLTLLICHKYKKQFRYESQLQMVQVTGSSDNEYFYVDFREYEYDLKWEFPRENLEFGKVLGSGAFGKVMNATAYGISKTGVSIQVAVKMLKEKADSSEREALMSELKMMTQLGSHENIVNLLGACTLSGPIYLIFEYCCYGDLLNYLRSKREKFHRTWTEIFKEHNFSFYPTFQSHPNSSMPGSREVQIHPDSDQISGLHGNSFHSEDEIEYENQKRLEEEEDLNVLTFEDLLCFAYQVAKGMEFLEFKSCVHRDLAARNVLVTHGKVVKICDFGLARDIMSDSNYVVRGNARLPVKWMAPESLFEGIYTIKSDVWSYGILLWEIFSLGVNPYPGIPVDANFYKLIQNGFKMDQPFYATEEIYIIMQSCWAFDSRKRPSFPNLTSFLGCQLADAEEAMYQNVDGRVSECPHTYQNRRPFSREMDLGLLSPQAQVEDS

NCI-H1299 = assay: Cell cycle arrest in human NCI-H1299 cells assessed as induction of polyploidy after 48 hrs by Hoechst staining-based fluorescence microscopic analysis; assay type: functional; conditions: NCI-H1299, 48 h
Mus musculus [4] = assay: Toxicity in mouse xenografted with human DOHH2 cells assessed as weight loss at 10 mg/kg, ip administered Q7d for 3 weeks; conditions: in vivo, 504 h
Mus musculus [5] = assay: Toxicity in mouse xenografted with human DOHH2 cells assessed as mortality at 10 mg/kg, ip administered Q7d for 3 weeks; conditions: in vivo, 504 h
[6] = biological target: Platelet-derived growth factor receptor alpha (Homo sapiens, UniProt P16234); assay: Inhibition of PDGFRalpha by TR-FRET analysis
Chain of Platelet-derived growth factor receptor alpha (P16234 whole entry): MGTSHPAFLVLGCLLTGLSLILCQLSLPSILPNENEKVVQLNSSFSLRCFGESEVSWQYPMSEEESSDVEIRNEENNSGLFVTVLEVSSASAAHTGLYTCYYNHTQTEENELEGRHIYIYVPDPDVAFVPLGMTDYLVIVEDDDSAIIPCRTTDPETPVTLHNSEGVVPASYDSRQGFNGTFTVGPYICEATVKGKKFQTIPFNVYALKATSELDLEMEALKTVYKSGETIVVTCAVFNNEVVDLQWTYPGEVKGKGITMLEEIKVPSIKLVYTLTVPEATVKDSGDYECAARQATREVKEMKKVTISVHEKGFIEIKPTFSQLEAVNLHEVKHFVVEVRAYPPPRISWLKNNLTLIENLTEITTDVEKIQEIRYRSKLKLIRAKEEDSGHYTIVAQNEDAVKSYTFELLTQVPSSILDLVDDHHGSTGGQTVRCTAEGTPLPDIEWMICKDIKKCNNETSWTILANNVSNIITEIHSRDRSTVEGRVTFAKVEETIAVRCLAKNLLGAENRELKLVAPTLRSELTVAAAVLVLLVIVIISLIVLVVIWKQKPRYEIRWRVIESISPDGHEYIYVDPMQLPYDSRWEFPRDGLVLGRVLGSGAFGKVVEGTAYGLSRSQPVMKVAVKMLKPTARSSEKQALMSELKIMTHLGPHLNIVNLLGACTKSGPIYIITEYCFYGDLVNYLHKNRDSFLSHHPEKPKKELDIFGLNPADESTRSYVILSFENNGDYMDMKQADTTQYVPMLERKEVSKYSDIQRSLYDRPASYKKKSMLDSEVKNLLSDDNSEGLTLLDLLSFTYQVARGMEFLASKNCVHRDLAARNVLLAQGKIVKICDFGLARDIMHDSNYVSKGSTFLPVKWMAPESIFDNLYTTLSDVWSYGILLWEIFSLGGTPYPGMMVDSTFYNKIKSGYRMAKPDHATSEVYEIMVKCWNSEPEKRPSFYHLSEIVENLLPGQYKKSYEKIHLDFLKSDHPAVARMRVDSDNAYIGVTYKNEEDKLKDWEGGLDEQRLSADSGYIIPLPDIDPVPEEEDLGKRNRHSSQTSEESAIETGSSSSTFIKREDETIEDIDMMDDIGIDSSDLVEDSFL

[7] = biological target: Fibroblast growth factor receptor 2 (Homo sapiens, UniProt P21802); assay: Inhibition of FGFR2 by TR-FRET analysis
Chain of Fibroblast growth factor receptor 2 (P21802 whole entry): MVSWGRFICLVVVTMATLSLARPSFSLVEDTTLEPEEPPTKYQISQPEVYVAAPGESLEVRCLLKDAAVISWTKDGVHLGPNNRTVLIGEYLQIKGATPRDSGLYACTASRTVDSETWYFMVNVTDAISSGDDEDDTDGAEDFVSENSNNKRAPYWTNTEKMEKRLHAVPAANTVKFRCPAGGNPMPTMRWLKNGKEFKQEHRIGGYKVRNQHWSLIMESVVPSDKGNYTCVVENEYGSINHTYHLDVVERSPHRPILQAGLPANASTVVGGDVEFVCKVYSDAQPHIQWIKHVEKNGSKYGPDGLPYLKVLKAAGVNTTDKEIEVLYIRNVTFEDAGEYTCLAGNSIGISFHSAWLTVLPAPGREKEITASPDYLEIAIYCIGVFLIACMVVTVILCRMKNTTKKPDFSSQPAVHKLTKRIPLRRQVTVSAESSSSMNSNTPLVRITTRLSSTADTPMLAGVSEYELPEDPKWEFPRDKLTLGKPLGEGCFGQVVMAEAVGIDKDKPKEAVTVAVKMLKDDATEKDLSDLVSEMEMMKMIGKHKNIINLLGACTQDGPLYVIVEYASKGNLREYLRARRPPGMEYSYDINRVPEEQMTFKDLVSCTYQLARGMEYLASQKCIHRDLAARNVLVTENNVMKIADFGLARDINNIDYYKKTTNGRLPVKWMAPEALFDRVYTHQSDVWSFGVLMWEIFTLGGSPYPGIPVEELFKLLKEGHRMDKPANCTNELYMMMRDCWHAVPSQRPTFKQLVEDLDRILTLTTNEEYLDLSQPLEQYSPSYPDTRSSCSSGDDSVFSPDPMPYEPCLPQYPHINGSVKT

Chain of Wee1-like protein kinase (P30291 whole entry): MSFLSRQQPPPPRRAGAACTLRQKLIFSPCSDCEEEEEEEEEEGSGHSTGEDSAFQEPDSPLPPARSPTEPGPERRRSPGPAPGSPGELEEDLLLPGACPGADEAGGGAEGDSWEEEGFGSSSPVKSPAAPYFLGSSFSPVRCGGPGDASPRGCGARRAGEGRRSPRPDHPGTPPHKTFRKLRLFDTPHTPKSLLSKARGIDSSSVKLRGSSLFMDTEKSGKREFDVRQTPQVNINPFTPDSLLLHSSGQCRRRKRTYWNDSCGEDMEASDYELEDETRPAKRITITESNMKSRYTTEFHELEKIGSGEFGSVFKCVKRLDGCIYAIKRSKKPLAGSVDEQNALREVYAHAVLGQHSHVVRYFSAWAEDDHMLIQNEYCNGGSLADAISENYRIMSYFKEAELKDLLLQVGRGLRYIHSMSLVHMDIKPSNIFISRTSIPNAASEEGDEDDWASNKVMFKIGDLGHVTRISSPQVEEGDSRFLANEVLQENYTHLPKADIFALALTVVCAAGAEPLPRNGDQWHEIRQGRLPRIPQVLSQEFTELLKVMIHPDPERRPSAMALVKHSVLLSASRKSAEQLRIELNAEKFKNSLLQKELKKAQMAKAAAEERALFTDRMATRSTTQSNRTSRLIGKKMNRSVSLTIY

Cn1cc(Nc2ncc(Br)c(N[C@H]3[C@@H](C(N)=O)[C@@H]4C=C[C@H]3C4)n2)cn1
IC50 (Wee1-like protein kinase): 2800 nM
IC50 (Aurora kinase A): 3 nM
TGI (DOHH-2): Active
IC50 [1]: 82 nM
IC50 [2]: 34 nM
IC50 [3]: 1 nM
EC15 (NCI-H1299): < 3 nM
Activity (Mus musculus [4]): Toxic
Activity (Mus musculus [5]): Toxic
IC50 [6]: 1 nM
IC50 [7]: 2 nM
